In general, logP refers to a log measure of how a compound divides between an organic and an aqueous phase. Low readings indicate a more hydrophilic compound, high ones a more lipophilic compound.

Data set [1] in a line: method code SF-AS, from DOI: 10.1584/jpestics.13.587.

As for `CCCCCCC(C)OC(=O)Nc1ccc(OCC)c(OCC)c1` (stereo unspecified), the logP was determined as 5.06.
Same read-out and setting: then `CCOc1ccc(NC(=O)OCCBr)cc1OCC`, with 2.78; and `C=CCC(C)OC(=O)Nc1ccc(OCC)c(OCC)c1` (stereo unspecified), with 3.37; and `C#CCC(C)OC(=O)Nc1ccc(OCC)c(OCC)c1` (stereo unspecified), with 2.86.
Still for that read-out and setting: the value for `CCOc1ccc(NC(=O)OC(C)c2ccccc2)cc1OCC` (stereo unspecified) was 3.56.
Turning to `C#CC(C)OC(=O)Nc1ccc(OCC)c(OCC)c1` (stereo unspecified), the logP in data set [1] stood at 2.68.
In turn, `CCOc1ccc(NC(=O)OC(C)C(Cl)(Cl)Cl)cc1OCC` (stereo unspecified) displayed a lipophilicity (logP) of 3.96.
The same measure, in the same setting: the value for `CCOc1ccc(NC(=O)OC(C)CCl)cc1OCC` (stereo unspecified) was 2.97.
Same read-out and setting: the value for `C#CCCOC(=O)Nc1ccc(OCC)c(OCC)c1` was 2.54.
Still for that read-out and setting: then `C#CC(CC)OC(=O)Nc1ccc(OCC)c(OCC)c1` (stereo unspecified), with 3.07; and `CCOc1ccc(NC(=O)OCCF)cc1OCC`, with 2.27; and `CCOc1ccc(NC(=O)OC(C)CF)cc1OCC` (stereo unspecified), with 2.59.
As for `CCOc1ccc(NC(=O)OC(C)(C)C)cc1OCC`, the logP was determined as 3.17.
In the case of `CCOc1ccc(NC(=O)OCCCl)cc1OCC`, the logP was 2.62.
In the case of `CCOc1ccc(NC(=O)OC(C)COC)cc1OCC` (stereo unspecified), the logP worked out at 2.56.
Consider `C=CC(CC)OC(=O)Nc1ccc(OCC)c(OCC)c1` (stereo unspecified), for which the logP was 3.42.

These data come from the SangsterLogP compilation.
